Target: human PAD4 (Homo sapiens (Human), UniProt Q9UM07)
Test: In Vitro PAD4 BAEE Biochemical Assay
Conditions: geometric mean of multiple experiments
Outline: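 Recombinant human PAD4 (His-SUMO tag removed, E. coli-expressed), 5 nM, preincubated with compound and 2 mM CaCl2 30 min at 25 °C in MOPS pH 7.6 with DTT; 3 mM BAEE added for 2 h at 25 °C, EDTA stop. Released ammonia detected by o-phthalaldehyde/DTT fluorescence (ex 405, em 535 nm).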

[1] = human PAD4, BAEE substrate, 5 nM PAD4, 2 mM calcium chloride, 3 mM BAEE
[2] = recombinant PAD4 5 nM, 2 mM calcium chloride, 3 mM BAEE substrate

human PAD4, sequence (Q9UM07 2-663): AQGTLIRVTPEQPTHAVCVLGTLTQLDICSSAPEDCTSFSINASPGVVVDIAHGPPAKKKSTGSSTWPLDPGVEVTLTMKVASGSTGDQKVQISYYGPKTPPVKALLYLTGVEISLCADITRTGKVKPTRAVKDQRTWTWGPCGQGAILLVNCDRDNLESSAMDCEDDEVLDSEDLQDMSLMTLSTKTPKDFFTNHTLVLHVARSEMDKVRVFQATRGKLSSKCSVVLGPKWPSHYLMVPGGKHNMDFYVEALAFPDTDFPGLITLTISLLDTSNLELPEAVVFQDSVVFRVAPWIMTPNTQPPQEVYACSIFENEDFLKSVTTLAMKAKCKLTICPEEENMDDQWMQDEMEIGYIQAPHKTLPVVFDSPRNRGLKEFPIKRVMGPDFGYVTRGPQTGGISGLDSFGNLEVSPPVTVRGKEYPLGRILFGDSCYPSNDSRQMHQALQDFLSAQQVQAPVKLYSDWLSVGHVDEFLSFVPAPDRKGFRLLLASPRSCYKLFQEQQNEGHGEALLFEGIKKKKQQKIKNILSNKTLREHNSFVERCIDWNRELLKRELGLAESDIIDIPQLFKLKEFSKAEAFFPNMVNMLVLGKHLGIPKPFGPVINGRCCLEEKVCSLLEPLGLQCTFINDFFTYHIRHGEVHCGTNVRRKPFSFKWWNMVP

| SMILES | IC50 [1] [nM] | IC50 [2] [nM] |
| --- | --- | --- |
| COc1cc(C(=O)N2[C@H]3CC[C@@H]2[C@H](N)C3)cc2nc(-c3cc4ccc([C@@H](C)NC(=O)N(C)C)nc4n3CC3CC3)n(C)c12 [Example 235, 3-((R)-1-(2-(5-((1R,2R,4S)-2-amino-7-azabicyclo[2.2.1]heptane-7-carbonyl)-7-methoxy-1-methyl-1H-benzo[d]imidazol-2-yl)-1-(cyclopropylmethyl)-1H-pyrrolo[2,3-b]pyridin-6-yl)ethyl)-1,1-dimethylurea] | 40.2 |  |
| COc1cc(C(=O)N2C[C@H](N)CC[C@@H]2C)cc2nc(-c3cc4ccc(-c5cccnc5-c5ccccc5)nc4n3CC3CC3)n(C)c12 [Example 283, ((2S,5R)-5-amino-2-methylpiperidin-1-yl)(2-(1-(cyclopropylmethyl)-6-(2-phenylpyridin-3-yl)-1H-pyrrolo[2,3-b]pyridin-2-yl)-7-methoxy-1-methyl-1H-benzo[d]imidazol-5-yl)methanone] | 320 |  |
| COc1cc(C(=O)N2C[C@H](N)[C@@H]3CC[C@H]2C3)cc2nc(-c3cc4ccc([C@@H](C)NC(=O)C56CC(C(F)(F)F)(C5)C6)nc4n3CC3CC3)n(C)c12 [Example 230, N-((R)-1-(2-(5-((1S,4R,5R)-4-amino-2-azabicyclo[3.2.1]octane-2-carbonyl)-7-methoxy-1-methyl-1H-benzo[d]imidazol-2-yl)-1-(cyclopropylmethyl)-1H-pyrrolo[2,3-b]pyridin-6-yl)ethyl)-3-(trifluoromethyl)bicyclo[1.1.1] pentane-1-carboxamide] | 127 |  |
| COc1cc(C(=O)N2C[C@H](N)[C@@H]3CC[C@H]2C3)cc2nc(-c3cc4ccc([C@@H](C)NC(=O)c5ccccc5C(F)(F)F)nc4n3CC3CC3)n(C)c12 [Example 292, N-((R)-1-(2-(5-((1S,4R,5R)-4-amino-2-azabicyclo [3.2.1]octane-2-carbonyl)-7-methoxy-1-methyl-1H-benzo [d]imidazol-2-yl)-1-(cyclopropylmethyl)-1H-pyrrolo[2,3-b]pyridin-6-yl)ethyl)-2-(trifluoromethyl) benzamide] |  | 128 |
| COc1cc(C(=O)N2[C@H]3CC[C@@H]2[C@H](N)C3)cc2nc(-c3cc4ccc(N5[C@@H](C)CCCS5(=O)=O)nc4n3CC3CC3)n(C)c12 [Example 103, ((1R,2R,4S)-2-amino-7-azabicyclo[2.2.1]heptan-7-yl) (2-(1-(cyclopropylmethyl)-6-((S)-3-methyl-1,1-dioxido-1,2-thiazinan-2-yl)-1H-pyrrolo[2,3-b]pyridin-2-yl)-7-methoxy-1-methyl-1H-benzo[d]imidazol-5-yl) methanone] | 22.3 |  |
| COc1cc(C(=O)N2[C@H]3CC[C@@H]2[C@H](N)C3)cc2nc(-c3cc4ccc(N(C(F)F)S(C)(=O)=O)nc4n3CC3CC3)n(C3CC3)c12 [Example 64, N-(2-(5-((1R,2R,4S)-2-amino-7-azabicyclo[2.2.1]heptane-7-carbonyl)-1-cyclopropyl-7-methoxy-1H-benzo[d]imidazol-2-yl)-1-(cyclopropylmethyl)-1H-pyrrolo [2,3-b]pyridin-6-yl)-N-(difluoromethyl) methanesulfonamide] | 128 |  |
| COc1cc(C(=O)N2C[C@H](N)CC[C@@H]2C)cc2nc(-c3cc4ccc(-c5ccc6[nH]ncc6c5C)nc4n3CC3CC3)n(C)c12 [Example 257, ((2S,5R)-5-amino-2-methylpiperidin-1-yl)(2-(1-(cyclopropylmethyl)-6-(4-methyl-1H-indazol-5-yl)-1H-pyrrolo[2,3-b]pyridin-2-yl)-7-methoxy-1-methyl-1H-benzo[d]imidazol-5-yl)methanone] | 1360 |  |
| COc1cc(C(=O)N2C[C@H](N)CC[C@@H]2C)cc2nc(-c3cc4ccc(-c5ccc(N6CCC6)nc5C)nc4n3CC3CC3)n(C)c12 [Example 260, ((2S,5R)-5-amino-2-methylpiperidin-1-yl)(2-(6-(6-(azetidin-1-yl)-2-methylpyridin-3-yl)-1-(cyclopropylmethyl)-1H-pyrrolo[2,3-b]pyridin-2-yl)-7-methoxy-1-methyl-1H-benzo[d]imidazol-5-yl)methanone] | 364 |  |
| COc1cc(C(=O)N2C[C@H](N)CCN2C)cc2nc(-c3cc4ccc([C@@H](C)NC(=O)C5CC(F)(F)C5)nc4n3CC3CC3)n(C)c12 [Example 162, N-((R)-1-(2-(5-((R)-5-amino-2-methylhexahydropyridazine-1-carbonyl)-7-methoxy-1-methyl-1H-benzo[d]imidazol-2-yl)-1-(cyclopropylmethyl)-1H-pyrrolo[2,3-b]pyridin-6-yl)ethyl)-3,3-difluorocyclobutane-1-carboxamide] | 92.1 |  |
| C[C@@H](NC(=O)C(C)(C)C)c1ccc2cc(-c3nc4cc(C(=O)N[C@H]5CNCC[C@@H]5F)c(F)cc4n3C)n(CC3CC3)c2n1 [Example 216, 2-(1-(cyclopropylmethyl)-6-((R)-1-pivalamidoethyl)-1H-pyrrolo[2,3-b]pyridin-2-yl)-6-fluoro-N-((3S,4S)-4-fluoropiperidin-3-yl)-1-methyl-1H-benzo[d]imidazole-5-carboxamide] | 158 |  |
| CN(c1ccc2cc(-c3nc4cc(C(=O)N5[C@H]6CC[C@@H]5[C@H](N)C6)cc5c4n3CCO5)n(CC3CC3)c2n1)S(C)(=O)=O [Example 90, N-(2-(7-((1R,2R,4S)-2-amino-7-azabicyclo[2.2.1]heptane-7-carbonyl)-3,4-dihydro-5-oxa-1,2a-diazaacenaphthylen-2-yl)-1-(cyclopropylmethyl)-1H-pyrrolo [2,3-b]pyridin-6-yl)-N-methylmethanesulfonamide] | 214 |  |
| COc1cc(C(=O)N2[C@H]3CC[C@@H]2[C@H](N)C3)cc2nc(-c3cc4ccc([C@@H](C)NC(=O)c5cnn(C(F)F)c5)cc4n3CC3CC3)n(C)c12 [Example 139, N-((R)-1-(2-(5-((1R,2R,4S)-2-amino-7-azabicyclo[2.2.1]heptane-7-carbonyl)-7-methoxy-1-methyl-1H-benzo[d]imidazol-2-yl)-1-(cyclopropylmethyl)-1H-indol-6-yl)ethyl)-1-(difluoromethyl)-1H-pyrazole-4-carboxamide] | 28.9 |  |
| COc1cc(C(=O)N2C[C@H](N)[C@@H]3CC[C@H]2C3)cc2nc(-c3cc4ccc([C@@H](C)NC(=O)[C@H]5CC5(F)F)nc4n3CC3CC3)n(C)c12 [Example 220, (R)-N-((R)-1-(2-(5-((1S,4R,5R)-4-amino-2-azabicyclo[3.2.1]octane-2-carbonyl)-7-methoxy-1-methyl-1H-benzo[d]imidazol-2-yl)-1-(cyclopropylmethyl)-1H-pyrrolo[2,3-b]pyridin-6-yl)ethyl)-2,2-difluorocyclopropane-1-carboxamide] | 54.9 |  |
| CNC(=O)c1ccc2cc(-c3nc4cc(C(=O)N5C[C@H](N)CC[C@@H]5C)cc(OC)c4n3C)n(CC3CC3)c2n1 [Example 251, 2-(5-((2S,5R)-5-amino-2-methylpiperidine-1-carbonyl)-7-methoxy-1-methyl-1H-benzo[d]imidazol-2-yl)-1-(cyclopropylmethyl)-N-methyl-1H-pyrrolo[2,3-b]pyridine-6-carboxamide] | 1720 |  |
| COc1cc(C(=O)N2[C@H]3CC[C@@H]2[C@H](N)C3)cc2nc(-c3cc4ccc([C@@H](C)NS(=O)(=O)c5cnn(C)c5)nc4n3CC3CC3)n(C)c12 [Example 241, N-((R)-1-(2-(5-((1R,2R,4S)-2-amino-7-azabicyclo[2.2.1]heptane-7-carbonyl)-7-methoxy-1-methyl-1H-benzo[d]imidazol-2-yl)-1-(cyclopropylmethyl)-1H-pyrrolo[2,3-b]pyridin-6-yl)ethyl)-1-methyl-1H-pyrazole-4-sulfonamide] | 76.7 |  |
| COc1cc(C(=O)N2C[C@H]3CC[C@@H]2[C@@H]3N)cc2nc(-c3cc4ccc(N5[C@@H](C)CCCS5(=O)=O)nc4n3CC3CC3)n(C)c12 [Example 104, ((1R,4R,7R)-7-amino-2-azabicyclo[2.2.1]heptan-2-yl) (2-(1-(cyclopropylmethyl)-6-((S)-3-methyl-1,1-dioxido-1,2-thiazinan-2-yl)-1H-pyrrolo[2,3-b]pyridin-2-yl)-7-methoxy-1-methyl-1H-benzo[d]imidazol-5-yl) methanone] | 79.3 |  |
| COc1cc(C(=O)N2CCC[C@@H](N)C2)cc2nc(-c3cc4ccc(N(C)C(=O)N(C)C)nc4n3CC3CC3)n(C)c12 [Example 117, (R)-1-(2-(5-(3-aminopiperidine-1-carbonyl)-7-methoxy-1-methyl-1H-benzo[d]imidazol-2-yl)-1-(cyclopropylmethyl)-1H-pyrrolo[2,3-b]pyridin-6-yl)-1,3,3-trimethylurea] | 1120 |  |
| COc1cc(C(=O)N2C[C@H](N)[C@@H]3CC[C@H]2C3)cc2nc(-c3cc4ccc([C@@H](C)NC(=O)[C@H]5CC5(F)F)nc4n3CC3CC3)n(C)c12 [Example 312, (R)-N-((R)-1-(2-(5-((1S,4R,5R)-4-amino-2-azabicyclo[3.2.1]octane-2-carbonyl)-7-methoxy-1-methyl-1H-benzo[d]imidazol-2-yl)-1-(cyclopropylmethyl)-1H-pyrrolo[2,3-b]pyridin-6-yl)ethyl)-2,2-difluorocyclopropane-1-carboxamide] |  | 55.9 |
| COc1cc(C(=O)N[C@H]2CCNC2)cc2nc(-c3cc4ccc(N(C(F)F)S(C)(=O)=O)nc4n3CC3CC3)n(C)c12 [Example 88, (S)-2-(1-(cyclopropylmethyl)-6-((N-(difluoromethyl)methyl)sulfonamido)-1H-pyrrolo[2,3-b]pyridin-2-yl)-7-methoxy-1-methyl-N-(pyrrolidin-3-yl)-1H-benzo[d]imidazole-5-carboxamide] | 50000 |  |
| COc1cc(C(=O)N2C[C@H](N)CCN2C)cc2nc(-c3cc4ccc([C@@H](C)NC(=O)c5ccc(F)cc5C)nc4n3CC3CC3)n(C)c12 [Example 195, N-((R)-1-(2-(5-((R)-5-amino-2-methylhexahydropyridazine-1-carbonyl)-7-methoxy-1-methyl-1H-benzo[d]imidazol-2-yl)-1-(cyclopropylmethyl)-1H-pyrrolo[2,3-b]pyridin-6-yl)ethyl)-4-fluoro-2-methylbenzamide] | 102 |  |

Source: US11878965B2, “Inhibitors of peptidylarginine deiminases” (Gilead Sciences, Inc., priority 2020, dated 2024)
